Test results as given in patent publication US4225472A, “Truncated somatostatin analogs” (American Home Products Corporation, priority 1979, dated 1980).
Positions of bridges follow the written chain, without caps; N, C: chain ends. Non-standard residues stand in square brackets, D forms with d. Residues, ends and D or L forms follow the SMILES beside them.

How the values were obtained:
growth hormone (GH) [1] = assay: Arginine-stimulated Nembutal-anesthetized rats, blood growth hormone by radioimmunoassay; type: in vivo, rat; details: albino male rats, dose 100 μg/kg subcutaneous, arginine 10 min later, blood 5 min after arginine; control 488 ± 82; *p<0.05
Description: (§1) The product of the preceding examples illustrates the selective activity of the compounds of this invention for growth hormone and glucagon suppression in the following standard procedure:
(§2) Albino male rats are administered Nembutal intraperitoneally at a dose of 50 milligrams per kilogram. Fifteen minutes later a subcutaneous injection of the test compound or physiological saline (control) is administered. Ten minutes later 0.5 milliliters of arginine (300 milligrams per milliliter, pH 7.2) is injected into the heart. Five minutes after receipt of the arginine the rats are decapitated and blood is collected into trasylol-EDTA. An appropriate aliquot is assayed for growth hormone (GH), insulin, and glucagon by radioimmunoassay.

glucagon = assay: Arginine-stimulated Nembutal-anesthetized rats, blood glucagon by radioimmunoassay; type: in vivo, rat; details: albino male rats, dose 100 μg/kg subcutaneous, arginine 10 min later, blood 5 min after arginine; control 133 ± 13; *p<0.05
Description: as §1, §2

growth hormone (GH) [2] = assay: Duration of activity, growth hormone level at 2 and 4 hours; type: in vivo; details: dose 1,000 μg/kg, *p<0.01
Source text: The duration of activity of the product of Example 2 was as follows: […]

insulin = assay: Arginine-stimulated Nembutal-anesthetized rats, blood insulin by radioimmunoassay; type: in vivo, rat; details: albino male rats, dose 100 μg/kg subcutaneous, arginine 10 min later, blood 5 min after arginine; control 74 ± 4
Description: as §1, §2

Structure (SMILES): C[C@@H](O)[C@@H]1NC(=O)[C@H](CCCCN)NC(=O)[C@@H](Cc2c[nH]c3ccccc23)NC(=O)[C@H](Cc2c[nH]c3ccccc23)NC(=O)[C@H](Cc2ccccc2)NC(=O)[C@@H](N)CSSC[C@H](C(=O)O)NC(=O)[C@H](Cc2ccccc2)NC1=O [Example 2, L-Cysteinyl-L-phenylalanyl-L-tryptophyl-D-tryptophyl-L-lysyl-L-threonyl-L-phenylalanyl-D-cysteine cyclic (1-8) disulfide] (H-CFW[dW]KTF[dC]-OH; disulfide 1-8)
- GH (growth hormone (GH) [1]): 191 ± 60 ng/mL
- GLUN (glucagon): 60 ± 12 pg/mL
- GH (growth hormone (GH) [2]; 2 hours, control 369 ± 60): 60 ± 6 ng/mL
- GH (growth hormone (GH) [2]; 4 hours, control 354 ± 68): 75 ± 10 ng/mL
- INS (insulin): 69 ± 4 μU/ml
